Where two headings read alike, the source gives them in different places.

Experiment [1] has as its target T1, HCV NS3/4A protease complex, BMS strain (UniProt P27958, C1454S/C1711G, species not given).
T1 construct: other: HCV NS3/4A enzyme assay; class symbols; numeric values; fused on or other part: three-lysine solubilising tail at the C-terminus of NS4A; purified on Ni-NTA from the pET21b vector (His tag implied)
Nature of the experiment: FRET peptide assay to monitor HCV NS3/4A proteolytic activity (BMS strain). It is filed as biochemical, HCV genotype 1a. As to conditions: read-out: IC50 Range, HCV NS3/4A enzyme assay. The source says: HCV NS3 protease complexes, derived from the BMS strain, H77 strain or J4L6S strain, were generated, as described below. These purified recombinant proteins were generated for use in a homogeneous assay (see below) to provide an indication of how effective compounds of the present disclosure would be in inhibiting HCV NS3 proteolytic activity.
Serum from an HCV-infected patient was obtained from Dr. T. Wright, San Francisco Hospital. An engineered full-length cDNA (compliment deoxyribonucleic acid) template of the HCV genome (BMS strain) was constructed from DNA fragments obtained by reverse transcription-PCR (RT-PCR) of serum RNA (ribonucleic acid) and using primers selected on the basis of homology between other genotype 1a strains. From the determination of the entire genome sequence, a genotype 1a was assigned to the HCV isolate according to the classification of Simmonds et al. (See P Simmonds, K A Rose, S Graham, S W Chan, F McOmish, B C Dow, E A Follett, P L Yap and H Marsden, J. Clin. Microbiol., 31(6), 1493-1503 (1993)). […] The infectious clones, H77 (1a genotype) and J4L6S (1b genotype) were obtained from R. Purcell (NIH) and the sequences are published in Genbank (AAB67036, see Yanagi, M., Purcell, R. H., Emerson, S. U. and Buldi, J. Proc. Natl. Acad. Sci. U.S.A. 94(16),8738-8743 (1997); AF054247, see Yanagi, M., St Claire, M., Shapiro, M., Emerson, S. U., Purcell, R. H. and Bukh, J, Virology 244 (1), 161-172. (1998)).
NS3/4A protease complex-containing fractions were pooled and loaded on a desalting column Superdex-S200 pre-equilibrated with buffer D (25 mM HEPES, pH 7.5, 20% glycerol, 300 mM NaCl, 0.2% TritonX-100, 10 mM βMB). Sample was loaded at a flow rate of 1 mL/min. NS3/4A protease complex-containing fractions were pooled and concentrated to approximately 0.5 mg/ml. The purity of the NS3/4A protease complexes, derived from the BMS, H77 and J4L6S strains, were judged to be greater than 90% by SDS-PAGE and mass spectrometry analyses. The enzyme was stored at −80° C., thawed on ice and diluted prior to use in assay buffer.
The purpose of this in vitro assay was to measure the inhibition of HCV NS3 protease complexes, derived from the BMS strain, H77 strain or J4L6S strain, as described above, by compounds of the present disclosure. This assay provides an indication of how effective compounds of the present disclosure would be in inhibiting HCV NS3 proteolytic activity.
In order to monitor HCV NS3/4A protease activity, an NS3/4A peptide substrate was used. The substrate was RET S1 (Resonance Energy Transfer Depsipeptide Substrate; AnaSpec, Inc. cat #22991)(FRET peptide), described by Taliani et al. in Anal. Biochem. 240(2):60-67 (1996). The sequence of this peptide is loosely based on the NS4A/NS4B natural cleavage site for the HCV NS3 protease except there is an ester linkage rather than an amide bond at the cleavage site. The peptide also contains a fluorescence donor, EDANS, near one end of the peptide and an acceptor, DABCYL, near the other end. The fluorescence of the peptide is quenched by […] resonance energy transfer (RET) between the donor and the acceptor, but as the NS3 protease cleaves the peptide the products are released from RET quenching and the fluorescence of the donor becomes apparent.
The peptide substrate was incubated with one of the three recombinant NS3/4A protease complexes, in the absence or presence of a compound of the present disclosure. The inhibitory effects of a compound were determined by monitoring the formation of fluorescent reaction product in real time using a Cytofluor Series 4000.
Assay buffer: 50 mM HEPES, pH 7.5; 0.15 M NaCl; 0.1% Triton; 15% Glycerol; 10 mM βME. Substrate: 2 μM final concentration (from a 2 mM stock solution in DMSO stored at −20° C.). HCV NS3/4A protease type 1a (1b), 2-3 nM final concentration (from a 5 μM stock solution in 25 mM HEPES, pH 7.5, 20% glycerol, 300 mM NaCl, 0.2% Triton-X100, 10 mM βME). […]

Experiment [2] has as its system HCV replicon in HUH-7 cells. Nature of the experiment: HCV replicon FRET assay. It is filed as cell-based, HCV strain 1b. The settings on record: Hepatitis C virus. From the text: An HCV replicon whole cell system was established as described by Lohmann V, Korner F, Koch J, Herian U, Theilmann L, Bartenschlager R., Science 285(5424):110-3 (1999). This system enabled us to evaluate the effects of our HCV Protease compounds on HCV RNA replication. Briefly, using the HCV strain 1b sequence described in the Lohmann paper (Assession number:AJ238799), an HCV cDNA was synthesized by Operon Technologies, Inc. (Alameda, Calif.), and the full-length replicon was then assembled in plasmid pGem9zf(+) (Promega, Madison, Wis.) using standard molecular biology techniques. The replicon consists of (i) the HCV 5′ UTR fused to the first 12 amino acids of the capsid protein, (ii) the neomycin phosphotransferase gene (neo), (iii) the IRES from encephalomyocarditis virus (EMCV), and (iv) HCV NS3 to NS5B genes and the HCV 3′ UTR. Plasmid DNAs were linearized with ScaI and RNA transcripts were synthesized in vitro using the T7 MegaScript transcription kit (Ambion, Austin, Tex.) according to manufacturer's directions. In vitro transcripts of the eDNA were transfected into the human hepatoma cell line, HUH-7. […] Resulting cell lines were characterized for positive and negative strand RNA production and protein production over time.
The HCV replicon FRET assay was developed to monitor the inhibitory effects of compounds described in the disclosure on HCV viral replication. HUH-7 cells, constitutively expressing the HCV replicon, were grown in Dulbecco's Modified Eagle Media (DMEM) (Gibco-BRL) containing 10% Fetal calf serum (FCS) (Sigma) and 1 mg/ml G418 (Gibco-BRL). Cells were seeded the night before (1.5×10^4 cells/well) in 96-well tissue-culture sterile plates. Compound and no compound controls were prepared in DMEM containing 4% FCS, 1:100 Penicillin/Streptomysin (Gibco-BRL), 1:100 L-glutamine and 5% DMSO in the dilution plate (0.5% DMSO final concentration in the assay). Compound/DMSO mixes were added to the cells and incubated for 4 days at 37° C. After 4 days, cells were first assessed for cytotoxicity using alamar Blue (Trek Diagnotstic Systems) for a CC50 reading. The toxicity of compound (CC50) was determined by adding 1/10th volume of alamar Blue to the media incubating the cells. After 4 h, the fluorescence signal from each well was read, with an excitation wavelength at 530 nm and an emission wavelength of 580 nm, using the Cytofluor Series 4000 (Perspective Biosystems). Plates were then rinsed thoroughly with Phosphate-Buffered Saline (PBS) (3 times 150 μl).
Background: In antiviral work, replicon cells carry a viral genome segment that copies itself.

Where [3] appears, read: Huh-7, HCV replicon cell assay, numeric values, read-out: EC50 Range.

Regarding `C=C[C@@H]1C[C@]1(NC(=O)[C@@H]1C[C@@H](Oc2ncc(OC)c3ccc(Cl)cc23)CN1C(=O)[C@@H](Nc1nc(-c2ccccc2)c(C)s1)C(C)(C)C)C(=O)NS(=O)(=O)C1CC1` [Example 9, (2S,4R)-4-(7-chloro-4-methoxyisoquinolin-1-yloxy)-N-((1R,2S)-1-(cyclopropylsulfonylcarbamoyl)-2-vinylcyclopropyl)-1-((S)-3,3-dimethyl-2-(5-methyl-4-phenylthiazol-2-ylamino)butanoyl)pyrrolidine-2-carboxamide], the half-inhibitory concentration (IC50) (usually the concentration needed to halve the response being measured) in experiment [1] (class symbols) was in the range of 1 to 20 nM. The EC50 (usually the concentration that produces a half-maximal response) in experiment [2] (Huh-7, read-out: EC50 Range) was in the range of 1 to 50 nM.

Turning to `C=C[C@@H]1C[C@]1(NC(=O)[C@@H]1C[C@@H](Oc2ncc(OC)c3ccc(Cl)cc23)CN1C(=O)[C@@H](Nc1nc(-c2ccc(C(F)(F)F)cc2)cs1)C(C)(C)C)C(=O)NS(=O)(=O)C1CC1` [Example 10, (2S,4R)-4-(7-chloro-4-methoxyisoquinolin-1-yloxy)-N-((1R,2S)-1-(cyclopropylsulfonylcarbamoyl)-2-vinylcyclopropyl)-1-((S)-3,3-dimethyl-2-(4-(4-(trifluoromethyl)phenyl)thiazol-2-ylamino)butanoyl)pyrrolidine-2-carboxamide], the IC50 in experiment [1] (class symbols) lay in the range of 1 to 20 nM. Further, the concentration giving a half-maximal response (EC50) in experiment [2] (Huh-7, read-out: EC50 Range) lay in the range of 1 to 50 nM.

`C=C[C@@H]1C[C@]1(NC(=O)[C@@H]1C[C@@H](Oc2ncc(OC)c3ccc(Cl)cc23)CN1C(=O)[C@@H](Nc1nc(-c2ccc3ccccc3c2)cs1)C(C)(C)C)C(=O)NS(=O)(=O)C1CC1` [Example 11]: in experiment [1] (class symbols), the IC50 lay within 1 to 20 nM. The EC50 in experiment [2] (Huh-7, read-out: EC50 Range) lay within 1 to 50 nM.

As to `C=C[C@@H]1C[C@]1(NC(=O)[C@@H]1C[C@@H](Oc2ncc(OC)c3ccc(Cl)cc23)CN1C(=O)[C@@H](Nc1nc(-c2ccc(OC)cc2)c(CC)s1)C(C)(C)C)C(=O)NS(=O)(=O)C1CC1` [Example 12], in experiment [1] (class symbols), the IC50 lay within 1 to 20 nM. Further, the EC50 in experiment [2] (Huh-7, read-out: EC50 Range) is 1 to 50 nM.

For `C=C[C@@H]1C[C@]1(NC(=O)[C@@H]1C[C@@H](Oc2ncc(OC)c3ccc(Cl)cc23)CN1C(=O)[C@@H](Nc1nc(-c2ccc(F)cc2F)cs1)C(C)(C)C)C(=O)NS(=O)(=O)C1CC1` [Example 13], the IC50 in experiment [1] (class symbols) lay in the range of 1 to 20 nM. Further, the EC50 in experiment [2] (Huh-7, read-out: EC50 Range) was 1 to 50 nM.

For the compound `C=C[C@@H]1C[C@]1(NC(=O)[C@@H]1C[C@@H](Oc2ncc(OC)c3ccc(Cl)cc23)CN1C(=O)[C@@H](Nc1nc(-c2ccccn2)cs1)C(C)(C)C)C(=O)NS(=O)(=O)C1CC1` [Example 14], the half-maximal inhibitory concentration (IC50) in experiment [1] (class symbols) fell in the range of 1 to 20 nM. The 50% effective concentration (EC50) in experiment [2] (Huh-7, read-out: EC50 Range) is 1 to 50 nM.

For the compound `C=C[C@@H]1C[C@]1(NC(=O)[C@@H]1C[C@@H](Oc2ncc(OC)c3ccc(Cl)cc23)CN1C(=O)[C@@H](Nc1nc(-c2cccnc2)cs1)C(C)(C)C)C(=O)NS(=O)(=O)C1CC1` [Example 15], in experiment [1] (class symbols), the IC50 is 1 to 20 nM. For the same compound, in experiment [2] (Huh-7, read-out: EC50 Range), the EC50 is 1 to 50 nM.

In the case of `C=C[C@@H]1C[C@]1(NC(=O)[C@@H]1C[C@@H](Oc2ncc(OC)c3ccc(Cl)cc23)CN1C(=O)[C@@H](Nc1nc(-c2ccncc2)cs1)C(C)(C)C)C(=O)NS(=O)(=O)C1CC1` [Example 16], the concentration for half-maximal inhibition (IC50) in experiment [1] (numeric values) was 1 nM. Moreover, in experiment [2] (setting [3]), the EC50 is 6.57 nM.

For the compound `C=C[C@@H]1C[C@]1(NC(=O)[C@@H]1C[C@@H](Oc2ncc(OC)c3ccc(Cl)cc23)CN1C(=O)[C@@H](Nc1nc(-c2ccc(OC(F)(F)F)cc2)cs1)C(C)(C)C)C(=O)NS(=O)(=O)C1CC1` [Example 17], in experiment [1] (numeric values), the IC50 was 11 nM. In experiment [2] (setting [3]), the EC50 was 8.95 nM.

For `C=C[C@@H]1C[C@]1(NC(=O)[C@@H]1C[C@@H](Oc2ncc(OC)c3ccc(Cl)cc23)CN1C(=O)[C@@H](Nc1nc(-c2ccc(Br)cc2)c(Br)s1)C(C)(C)C)C(=O)NS(=O)(=O)C1CC1` [Example 19], in experiment [1] (class symbols), the concentration for half-maximal inhibition (IC50) is 1 to 20 nM. The EC50 in experiment [2] (Huh-7, read-out: EC50 Range) is 1 to 50 nM.

As for `C=C[C@@H]1C[C@]1(NC(=O)[C@@H]1C[C@@H](Oc2ncc(OC)c3ccc(Cl)cc23)CN1C(=O)[C@@H](Nc1nc(-c2ccccc2)cs1)C(C)(C)C)C(=O)NS(=O)(=O)C1CC1` [Example 20], the IC50 in experiment [1] (numeric values) was 3 nM. Further, the concentration giving a half-maximal response (EC50) in experiment [2] (setting [3]) was found to be 3.9 nM.

As to `C=C[C@@H]1C[C@]1(NC(=O)[C@@H]1C[C@@H](Oc2ncc(OC)c3ccc(Cl)cc23)CN1C(=O)[C@@H](Nc1nc(-c2ccc(C#N)cc2)cs1)C(C)(C)C)C(=O)NS(=O)(=O)C1CC1` [Example 21], the IC50 in experiment [1] (class symbols) was in the range of 1 to 20 nM. For the same compound, the EC50 in experiment [2] (Huh-7, read-out: EC50 Range) was in the range of 1 to 50 nM.

For the compound `C=C[C@@H]1C[C@]1(NC(=O)[C@@H]1C[C@@H](Oc2ncc(OC)c3ccc(Cl)cc23)CN1C(=O)[C@@H](Nc1nc(-c2cc(C(F)(F)F)cc(C(F)(F)F)c2)cs1)C(C)(C)C)C(=O)NS(=O)(=O)C1CC1` [Example 22], the 50% inhibitory concentration (IC50) in experiment [1] (class symbols) fell in the range of 1 to 20 nM. In experiment [2] (Huh-7, read-out: EC50 Range), the 50% effective concentration (EC50) lay within 1 to 50 nM.

Regarding `C=C[C@@H]1C[C@]1(NC(=O)[C@@H]1C[C@@H](Oc2ncc(OC)c3ccc(Cl)cc23)CN1C(=O)[C@@H](Nc1nc(-c2ccc(C)cc2)cs1)C(C)(C)C)C(=O)NS(=O)(=O)C1CC1` [Example 23], in experiment [1] (class symbols), the IC50 is 20 to 200 nM. Also, the EC50 in experiment [2] (Huh-7, read-out: EC50 Range) was in the range of 1 to 50 nM.

Take `C=C[C@@H]1C[C@]1(NC(=O)[C@@H]1C[C@@H](Oc2ncc(OC)c3ccc(Cl)cc23)CN1C(=O)[C@@H](Nc1nc(-c2ccc(-c3ccccc3)cc2)cs1)C(C)(C)C)C(=O)NS(=O)(=O)C1CC1` [Example 24]: the IC50 in experiment [1] (class symbols) lay in the range of 20 to 200 nM. Also, the half-maximal effective concentration (EC50) in experiment [2] (Huh-7, read-out: EC50 Range) lay in the range of 1 to 50 nM.

These data come from patent US8163921B2, “Hepatitis C virus inhibitors” (Bristol-Myers Squibb Company, priority 2008, dated 2012).
